# Laboratory results: patent US9938328B2, “Use of PEDF-derived polypeptides for treating alopecia and/or hair depigmentation” (MacKay Memorial Hospital, priority 2012, dated 2018)
# Entries after “also recorded” stand apart in the source; their conditions may differ. Read-outs that look alike come from different tables or passages of the source.
# What was measured:
# C57BL/6 mice = experiment: Hair regrowth in DHT-injected depilated mice, topical peptide gel for 14 days; type: in vivo, mouse; conditions: for Numbers of Hair Bulbs/mm deep subcutis / Hair Growth Score: DHT 30 mg/kg s.c. twice per week, gel 25 μM once per day for 14 days; for increase in total number of hair bulbs versus vehicle or 18-mer / hair regrowth after depilation (FIG. 7, in words): DHT-injected mice; for hair regrowth after depilation (FIG. 7, in words): daily application, day-18 post-depilation; for Hair Growth Score: scale 0 (0%) to 5 (80-100% of shaved area dark)
# Description: (§1) Before use, the stock containing the 44-mer was prepared into a working dilution, which is then mixed with an antibiotic ointment containing 5 mg/g neomycin sulfate and 12.5 mg/g bacitracin to obtain an antibiotic ointment containing 25 μM of 44-mer. As to other PEDF peptides, 5 μl of 5 mM PEDF peptide stock was gradually dissolved in ethyl alcohol (30% w/w in distilled water), and then 1-oleoyl-rac-glycerol (1% w/w, a skin penetration enhancer) and light mineral oil (1% w/w) were gradually added. The solution was finally gelled by adding hydroxypropyl methylcellulose (5% w/w) to a final volume of 1 ml. A DMSO vehicle corresponding to the peptide formulation was prepared for the purpose of in vivo comparison. FITC-29-mer was also dissolved in the same formulation for applied on top of skin to determining the follicular distribution of FITC-29-mer.
# (§2) For topical treatments, 350 mg ointment or gel containing 25 μM of PEDF peptide was spread gently over dorsal skin per mouse.
# To evaluate the effect of PEDF peptide on restarting hair growth, C57BL/6 mice were depilated as described in Example 3.2. At day-11 post-depilation, mice (six to ten mice per experimental condition) were injected subcutaneously (30 mg/kg body weight) in the shaved dorsal area with DHT solution (1.5 mg of DHT mixed within 200 μl of olive oil), and then the mice were injected with DHT twice per week during the course of the study. After the first DHT injection, 350 mg vehicle gel or gel containing 25 μM PEDF peptide (29-mer, 24-mer, 20-mer, or 18-mer) was topically applied to the back skin of mice once per day for 14 days. Changes in hair coat were recorded by photographing with a digital camera (FIG. 7), and the percentage of the shaved area that became dark (re-grown hair) was measured. The scores of hair regrowth after DHT injection was evaluated using the following scale: 0, 0% (no hair growth); 1, <20%; 2, 20-39%; 3, 40-59%; 4, 60-79%; 5, 80-100%. Numbers of hair bulbs per unit length (1 mm) of deep subcutis were counted as described above.
# male C57BL/6 mice = experiment: DHT-induced catagen development in depilated mice, topical peptide gel (histomorphometry, TUNEL, BrdU); type: in vivo, mouse; conditions: day-15 post-depilation; for hair cycle phase of hair follicles (histology, in words): 4 days after the DHT injection; for BrdU Labeling Index (%) in HB: hair bulb; for Phase (%) Anagen-Catagen I / Phase (%) Catagen II-III / Phase (%) Catagen IV-V / Phase (%) Catagen VI-VIII: percentage of hair follicles
# Description: as §1, §2
# The murine back skin was harvested parallel to the vertebral line to obtain longitudinal sections through the hair follicles. Dorsal skin was fixed in 4% paraformaldehyde and embedded in paraffin blocks to obtain longitudinal section. Tissues were sliced into 5 μm sections. Before use, fixed samples were de-paraffinized in xylene and rehydrated in a graded series of ethanol. General histology was performed using H&E dye. Digital photomicrographs (Zeiss epifluorescence microscope; Jena, Germany) were taken from representative areas at a fixed magnification of 100×.
# For analysis of HF morphogenesis, animals were euthanized at day 15 post-depilation. The percentage of hair follicles in different stages of morphogenesis was assessed on the accepted basis of murine HF morphological criteria as described by Müuller-Röver et al. (Journal of Investigative Dermatology (2001) 117, 3-15). At least 24 longitudinally cut HF sections obtained from six to ten DHT-treated animals, were analyzed.
# (§3) The vibrissae follicle cryosections were washed three times in PBS. Formalin-fixed, paraffin-embedded skin specimens were deparaffinized in xylene and rehydrated in a graded series of ethanol. Sections were then stained with TdT-mediated dUTP nick-end labeling (TUNEL)-based kit (Roche Molecular Biochemicals, Indianapolis, Ind.) following the manufacturer's instructions. The cell number was monitored by counterstaining with Hoechst 33258 (blue). The nuclei were calculated in ten randomly selected fields of the three different chambers by a Zeiss epifluorescence microscope (400×, 10 fields/sample). Pictures were recorded on Zeiss software.
# (§4) For animal study, BrdU was reconstituted in DMSO as stock (80 mM). 10 μl of BrdU mixed with 90 μl of PBS was intraperitoneally injected into mouse at 16 hours prior to euthanasia. Formalin-fixed, paraffin-embedded skin specimens were deparaffinized in xylene and rehydrated in a graded series of ethanol before performing immunohistochemistry. The vibrissae follicle cryosections were washed three times in PBS and then exposed to 1 N HCl at room temperature for 1 hour for subsequent immunohistochemistry.
# For in vivo analysis, a 5α-dihydrotestosterone (DHT) animal model was employed. Six-week-old male C57BL/6 mice (weighing 15-20 g) in the telogen stage of the hair cycle were depilated using a melted wax/rosin mixture (1:1) under general anesthesia, and the anagen stage was induced. DHT was dissolved in DMSO to give a 50 mg/ml stock solution. On day-11 post-depilation, mice (six to ten mice per experimental condition) were injected subcutaneously in the shaved dorsal area with DHT solution (30 mg/kg body weight; 1.5 mg of DHT mixed within 200 μl of olive oil per mouse). After the DHT injection, 350 mg vehicle gel or gel containing 25 μM of PEDF peptide (29-mer, 24-mer, 20-mer, or 18-mer) was topically applied to the back skin of mice once per day for 3 days. […]
# [1] = system: male mouse vibrissal hair follicles; experiment: Organ culture of mouse vibrissal hair follicles challenged with DHT (TUNEL, BrdU, histology); type: cell-based; conditions: for BrdU Labeling Index (%) / TUNNEL Labeling Index (%): peptide for 16 hours, then 100 nM DHT for further 48 hours, hair matrix keratinocytes; for TUNEL-positive keratinocytes versus vehicle or 18-mer (in words): vibrissae with 100 nM DHT
# Description: as §3
# (§5) After fixing with 4% paraformaldehyde, cells were exposed to cold methanol for 2 minutes, and then treated with 1 N HCl at room temperature for 1 hour before performing immunofluorescence. BrdU-labeled DNA was detected by polyclonal anti-BrdU antibody and rhodamine-conjugated donkey anti-rabbit IgG.
# as §4
# Mouse vibrissae follicles were cultured as follows. Briefly, whisker pads were cut off from the face of mouse and transferred to a Petri dish containing PBS and 1% antibiotic mixture. Each vibrissae follicle that was in anagen was isolated from the whisker pads and cultured in DMEM supplemented with insulin (10 μg/ml), hydrocortisone (10 ng/ml, Sigma-Aldrich), 1% penicillin/streptomycin antibiotic mixture and L-glutamine (2 mM), using 24-well culture plates (3 vibrissae follicles per well) and incubated at 37° C., in 5% CO2. Ten to fifteen HFs were studied in each experimental group, and were repeated three times. DHT and PEDF peptide dissolved in DMSO were added to the HF culture supplemented with insulin and hydrocortisone (the final concentration of DMSO was less than 0.05%).
# Each PEDF peptide (29-mer, 24-mer, 20-mer, or Mo 20-mer) was added to organ culture of male mouse vibrissal hair follicles (HFs) for 16 hours, and then 100 nM DHT was added for further 48 hours.
# Immunodetections of TUNEL- and BrdU-positive cells in cryosections were used for assessing apoptosis and proliferation activity in the HF epithelium, respectively. The labeling index (%) of TUNEL- and BrdU-positive cells was computed as the number of labeled cells divided by the total number of cells with nuclei.
# [2] = system: human epidermal keratinocytes (HaCaT); experiment: BrdU incorporation in HaCaT keratinocytes in response to TGF-β1 and PEDF-derived peptide; type: cell-based
# Description: as §5
# An immortalized human keratinocyte cell line (HaCaT) was cultured at 37° C. in 10% FBS-DMEM. Treatments with PEDF peptide and recombinant human TGFβ1 (R&D Systems) were performed on cells seeded in 5% FBS-DMEM.
# It is known that DHT would induce the expression of transforming growth factor-β1 (TGF-β1) in dermal papilla cells (DPCs), and TGF-β1 is a catagen inducer that suppresses hair growth and follicular keratinocyte growth in subjects with androgenic alopecia. To further confirm that PEDF-derived peptide is able to protect keratinocytes from DHT-mediated growth suppression, the cell division of human epidermal keratinocytes (HaCaT) in response to TGF-β1 and PEDF-derived peptide were assessed by BrdU incorporation. The labeling index (%) of BrdU-positive cells was computed as the number of labeled cells divided by the total number of cells with nuclei.
# However, in the TGF-β1+20-mer treatment group, TGF-β1 was unable to suppress the proliferative activity of HaCaT, when cells were pretreated with 20-mer for 16 hours.
# [3] = DHT 30 mg/kg s.c., gel 25 μM once per day for 3 days
Substance,Numbers of Hair Bulbs/mm deep subcutis (C57BL/6 mice),increase in total number of hair bulbs versus vehicle or 18-mer (C57BL/6 mice) [fold],"hair regrowth after depilation (FIG. 7, in words) (C57BL/6 mice)",Hair Growth Score (C57BL/6 mice),"hair cycle phase of hair follicles (histology, in words) (male C57BL/6 mice)",BrdU Labeling Index (%) in HB (male C57BL/6 mice; [3]) [%],BrdU Labeling Index (%) [1] [%],TUNNEL Labeling Index (%) [1] [%],TUNEL-positive keratinocytes versus vehicle or 18-mer (in words) [1],BrdU Labeling Index (%) [2] [%],Phase (%) Anagen-Catagen I (male C57BL/6 mice; [3]) [%],Phase (%) Catagen II-III (male C57BL/6 mice; [3]) [%],Phase (%) Catagen IV-V (male C57BL/6 mice; [3]) [%],Phase (%) Catagen VI-VIII (male C57BL/6 mice; [3]) [%],"BrdU Labeling Index (%) ([2]; TGF-β1 + 20-mer: pretreated with 20-mer for 16 hours, then TGF-β1 4 ng/ml, 24 hours)","hair matrix histology (H&E, FIG. 5) ([1]; peptide pretreatment, then 100 nM DHT)",TUNNEL-positive cell/HF in HM and ORS (male C57BL/6 mice; [3]) [cell/HF]
"SLGAEQRTESIIHRALYYDLISSP [24-mer, corresponds to residues 93-116 of human PEDF]",7.2 ± 1.07 /mm,1.6,amelioration of the retardation of hair regrowth,4.13 ± 0.40,"significantly higher percentage of hair follicles was found in the anagen phase, and the early catagen phase",46.9 ± 2.57,22.0 ± 3.69,6.5 ± 2.43,much less TUNEL-positive keratinocytes,–,–,–,–,–,–,–,–
"transforming growth factor-β1 [TGF-β1, reference compound]",–,–,–,–,–,–,–,–,–,9.9 ± 2.23,–,–,–,–,–,–,–
"SLGAEQRTESIIHRALYYDLISSPDIHGT [29-mer, corresponds to residues 93-121 of human PEDF]",7.4 ± 1.03 /mm,1.6,amelioration of the retardation of hair regrowth,3.75 ± 0.37,"mostly in the anagen phase; also recorded: significantly higher percentage of hair follicles was found in the anagen phase, and the early catagen phase",44.89 ± 2.95,22.6 ± 2.42,5.8 ± 2.12,much less TUNEL-positive keratinocytes,–,39.85 ± 1.35,37.8 ± 1.3,19.15 ± 2.05,3.2 ± 0.6,–,–,–
"SLGAEQRTESIIHRALYYDL [20-mer, corresponds to residues 93-112 of human PEDF]",6.8 ± 1.24 /mm,1.6,amelioration of the retardation of hair regrowth,4.25 ± 0.25,"mostly in the anagen phase; also recorded: significantly higher percentage of hair follicles was found in the anagen phase, and the early catagen phase",45.2 ± 2.47,23.6 ± 4.56,6.8 ± 1.68,much less TUNEL-positive keratinocytes,23.3 ± 2.46,39.0 ± 2.8,33.95 ± 1.25,23.6 ± 1.8,3.45 ± 0.25,32.3 ± 3.70,regularly aligned keratinocytes and much less abnormal melanin particles,–
"SLGAEHRTESVIHRALYYDL [Mo 20-mer, synthetic peptide derived from mouse PEDF]",–,–,–,–,–,–,24.6 ± 2.56,7.3 ± 1.75,much less TUNEL-positive keratinocytes,–,–,–,–,–,–,–,–
"EQRTESIIHRALYYDLIS [18-mer, 18-mer peptide without the SLGA residues]",4.8 ± 0.86 /mm,–,remarkable retardation of hair regrowth,1.88 ± 0.40,entered catagen; also recorded: in the middle and late catagen phase,25.6 ± 2.52,8.4 ± 1.21,26.2 ± 4.21,–,–,9.7 ± 1.8,13.85 ± 1.75,53.05 ± 0.85,23.4 ± 4.4,–,–,7.6 ± 1.5
